Laboratory results from patent publication US20260317272A1, “USE OF STROBILURIN TYPE COMPOUNDS FOR COMBATING PHYTOPATHOGENIC FUNGI CONTAINING AN AMINO ACID SUBSTITION F129L IN THE MITOCHONDRIAL CYTOCHROME B PROTEIN CONFERRING RESISTANCE TO QO INHIBITORS XVI” (priority 2023, published 2026).

Tests used:
Puccinia striiformis [1] = assay: Use Example 9: curative control of wheat stripe rust on wheat (PUCCST K4); type: in vivo; settings: 16 ppm, untreated 90%
Protocol: (§1) The compound was dissolved in a mixture of acetone and/or dimethylsulfoxide and the wetting agent/emulsifier Wettol, which is based on ethoxylated alkylphenoles, in a ratio (volume) solvent-emulsifier of 99 to 1 to give a total volume of 5 ml. Subsequently, water was added to total volume of 100 ml. This stock solution was then diluted with the described solvent-emulsifier-water mixture to the final concentration given in the tables below.
Use Example 9. Curative Control of Wheat Stripe Rust on Wheat Caused by Puccinia striiformis (PUCCST K4)
The first two developed leaves of potted wheat seedling were inoculated with spores of Puccinia striiformis. To ensure the success of the artificial inoculation, the plants were transferred to a chamber without light and a temperature of 5° C. for 24 h. Then the trial plants were cultivated for 3 days in a greenhouse chamber at 16° C. and a relative humidity of minimum 75%. The plants were sprayed to run-off with the previously described spray solution, containing the concentration of active ingredient or their mixture as described below. The plants were allowed to air-dry. Then the trial plants were cultivated for up to 12 days in a greenhouse chamber at 16° C. and a relative humidity of minimum 75%. The extent of fungal attack on the leaves was visually assessed as % diseased leaf area.

Alternaria solani = assay: Use Example 1: preventative fungicidal control of early blight on tomatoes (ALTESO P1); type: in vivo; settings: 63 ppm, tomato, treated 1 day before inoculation, F129L strain, assessed after 5 days, untreated 85
Protocol: as §1
Use Example 1. Preventative Fungicidal Control of Early Blight on Tomatoes (Alternaria solani) (ALTESO P1)
Young seedlings of tomato plants were grown in pots. These plants were sprayed to run-off with previously described spray solution, containing the concentration of active ingredient or mixture mentioned in the table below. The next day the treated plants were inoculated with an aqueous suspension of Alternaria solani. The strain used contains the amino acid substitution F129L in the mitochondrial cytochrome b protein conferring resistance to Qo inhibitors. Then the trial plants were immediately transferred to a humid chamber. After 5 days at 18 to 20° C. and a saturated relative humidity, the extent of fungal attack on the leaves was visually assessed as % diseased leaf area.

Pyrenophora teres = assay: Use Example 12: control of net blotch on barley (PYRNTE P4); type: in vivo, Pyrenophora (syn. Drechslera) teres; settings: F129L strain, inoculated seven days later, 16 ppm, untreated 80%
Protocol: as §1
Use Example 12. Control of Net Blotch on Barley Caused by Pyrenophora teres (PYRNTE P4)
The first fully developed leaves of potted barley plants were sprayed to run-off previously described spray solution, containing the concentration of active ingredient or their mixture mentioned in the table below. Seven days later the treated plants were inoculated with an aqueous spore suspension of Pyrenophora (syn. Drechslera) teres. The strain used contains the amino acid substitution F129L in the mitochondrial cytochrome b protein conferring resistance to Qo inhibitors. After up to 19 days of cultivation at 20-24° C. and a relative humidity close to 70%, the extent of fungal attack on the leaves was visually assessed as % diseased leaf area.

Puccinia triticina [2] = assay: Use Example 6: preventative control of brown rust on wheat (PUCCRT P7); type: in vivo, Puccinia triticina (syn. P. recondita); settings: 16 ppm, seven days before inoculation, 9 to 12 days, untreated 85
Protocol: as §1
Use Example 6. Preventative Control of Brown Rust on Wheat Caused by Puccinia triticina (Syn. P. recondita) (PUCCRT P7)
(§2) The first two developed leaves of potted wheat seedling were sprayed to run-off with previously described spray solution, containing the concentration of active ingredient or their mixture as described below. Seven days later the plants were dusted with spores of Puccinia triticina. To ensure the success of the artificial inoculation, the plants were transferred to a humid chamber without light and a relative humidity of 95 to 99% and 20 to 24° C. for 24 h. Then the trial plants were cultivated for 9 to 12 days in a greenhouse chamber at 20 to 24° C. and a relative humidity between 65 and 70%. The extent of fungal attack on the leaves was visually assessed as % diseased leaf area.

Puccinia striiformis [3] = assay: Use Example 10: preventative control of wheat stripe rust on wheat (PUCCST P7); type: in vivo; settings: 16 ppm, untreated 90%
Protocol: as §1
Use Example 10. Preventative Control of Wheat Stripe Rust on Wheat Caused by Puccinia striiformis (PUCCST P7)
The first two developed leaves of potted wheat seedling were sprayed to run-off with previously described spray solution, containing the concentration of active ingredient or their mixture as described below. Seven days later the plants were inoculated with spores of Puccinia striiformis. To ensure the success of the artificial inoculation, the plants were transferred to a chamber without light and a temperature of 5° C. for 24 h. Then the trial plants were cultivated for up to 14 days in a greenhouse chamber at 16° C. and a relative humidity of minimum 75%. The extent of fungal attack on the leaves was visually assessed as % diseased leaf area.

Phakopsora pachyrhizi = assay: Use Example 14: activity against Asian soybean rust under semi field conditions; type: in vivo; settings: 100 g a.i./ha; for B14 Efficacy, % / Efficacy, %: Abbot's formula; for B14 Efficacy, % / B14 infection rate, %: 14 days after second application, semi field, Brazil; for B14 infection rate, %: sprayed twice, 14 day interval; for Efficacy, %: B14; for infection rate, %: B14 (14 days after second application)
Protocol: Use Example 14. Activity Against Asian Soybean Rust (Phakopsora pachyrhizi) Under Semi Field Conditions
Soybeans were grown in an area covered with an insect proof net under natural temperature and light regime in Brazil. Seeds were sown in a tray, allowed to germinate and grow for 14-23 days, and afterwards transplanted to containers. Subsequently, the plants were grown for another 27-35 days before spray application.
The soybean plants were sprayed twice at a spray interval of 14 days. The spray solutions were prepared by mixing experimental formulations (100 g/l SC), in water, adding the adjuvant Mees™ (BASF, soybean oil methyl ester 824.3 g/L, EC) at 0.5 I/ha. The plants were sprayed in a mobile spray cabinet with a horizontal boom. The spray solutions were applied with 500 L/ha spray volume with a flat fan nozzle.
The plants were inoculated with natural population of Phakopsora pachyrhizi spore suspension one day after each spray application. Plants were incubated in a mobile chamber with a misting system at saturated humidity following each inoculation.
Soybean rust infestation was assessed as percent infected leaf area at 14 days after second application (B14). These percent values were converted in efficacies. The efficacy (E) was calculated as follows using Abbot's formula: […]

Puccinia triticina [4] = assay: Use Example 7: preventative control of brown rust on wheat (PUCCRT P10); type: in vivo, Puccinia triticina (syn. P. recondita); settings: 16 ppm, ten days before inoculation, 6 days, untreated 80
Protocol: as §1
Use Example 7. Preventative Control of Brown Rust on Wheat Caused by Puccinia triticina (Syn. P. recondita) (PUCCRT P10)
as §2, with “below. Ten” for “below. Seven”, “were inoculated” for “were dusted”, “for 6” for “for 9 to 12”, “at 20-24°” for “at 20 to 24°”

[5] = Table 3, untreated infection 56
[6] = Table 5, untreated infection 71%

Compound | Diseased leaf area (%) (Puccinia striiformis [1]) | Diseased leaf area (%) (Alternaria solani) | Diseased leaf area (%) (Pyrenophora teres) | Diseased leaf area (%) (Puccinia triticina [2]) | Diseased leaf area (%) (Puccinia striiformis [3]) | B14 Efficacy, % (Phakopsora pachyrhizi; [5]) [%] | B14 infection rate, % (Phakopsora pachyrhizi; Table 3, untreated 56) [%] | B14 Efficacy, % (Phakopsora pachyrhizi; Table 4, untreated infection 52) [%] | B14 infection rate, % (Phakopsora pachyrhizi; Table 4, untreated 52) [%] | Efficacy, % (Phakopsora pachyrhizi; [6]) [%] | infection rate, % (Phakopsora pachyrhizi; Table 5, untreated 71%) [%] | Efficacy, % (Phakopsora pachyrhizi; Table 6, untreated infection 62%) [%] | infection rate, % (Phakopsora pachyrhizi; Table 6, untreated 62%) [%] | Diseased leaf area (%) (Puccinia triticina [4]) | Efficacy, % (Phakopsora pachyrhizi; Table 7, untreated infection 63%) [%] | infection rate, % (Phakopsora pachyrhizi; Table 7, untreated 63%) [%]
CNC(=O)/C(=N/OC)c1cccc(C)c1CO/N=C(\COC)c1c(F)cc(F)cc1F [Compound 1, (2E)-2-methoxyimino-2-[2-[[(Z)-[2-methoxy-1-(2,4,6-trifluorophenyl)ethylidene]amino]oxymethyl]-3-methyl-phenyl]-N-methyl-acetamide] | 0 | 11 | 10 | 10 | 13 | 57 | 24 |  |  |  |  |  |  |  |  | 
COC/C(=N\OCc1c(C)cccc1/C(=N\OC)C(=O)OC)c1c(F)cc(F)cc1F [Compound 2, methyl (2E)-2-methoxyimino-2-[2-[[(Z)-[2-methoxy-1-(2,4,6-trifluorophenyl)ethylidene]amino]oxymethyl]-3-methyl-phenyl]acetate] |  | 13 | 13 |  | 11 |  |  | 54 | 24 |  |  |  |  |  |  | 
CO/C=C(/C(=O)OC)c1cccc(C)c1CO/N=C(\COC)c1ccc(F)cc1Cl [Compound 3] | 7 | 5 |  | 9 | 0 |  |  |  |  | 56 | 31 |  |  |  |  | 
CO/C=C(/C(=O)OC)c1cccc(C)c1CO/N=C(\COC)c1c(F)cc(F)cc1F [Compound 4, methyl (E)-3-methoxy-2-[2-[[(Z)-[2-methoxy-1-(2,4,6-trifluorophenyl)ethylidene]amino]oxymethyl]-3-methyl-phenyl]prop-2-enoate] | 15 | 5 | 4 | 7 | 0 |  |  |  |  |  |  | 66 | 21 | 12 |  | 
CNC(=O)/C(=N/OC)c1cccc(C)c1CO/N=C(\COC)c1ccc(F)c(F)c1 [Compound 5, (2E)-2-[2-[[(Z)-[1-(3,4-difluorophenyl)-2-methoxy-ethylidene]amino]oxymethyl]-3-methylphenyl]-2-methoxyimino-N-methyl-acetamide] | 1 | 3 | 4 | 6 | 7 | 57 | 24 |  |  |  |  |  |  | 12 |  | 
CO/C=C(/C(=O)OC)c1cccc(C)c1CO/N=C(\COC)c1ccc(Cl)cc1Cl [Compound 6, methyl (E)-2-[2-[[(Z)-[1-(2,4-dichlorophenyl)-2-methoxy-ethylidene]amino]oxymethyl]-3-methyl-phenyl]-3-methoxy-prop-2-enoate] |  |  |  | 11 | 0 |  |  |  |  | 56 | 31 |  |  | 5 |  | 
CNC(=O)/C(=N/OC)c1cccc(C)c1CO/N=C(\COC)c1c(F)cc(OC)cc1F [Compound 7, (2E)-2-[2-[[(Z)-[1-(2,6-difluoro-4-methoxy-phenyl)-2-methoxy-ethylidene]amino]oxymethyl]-3-methyl-phenyl]-2-methoxyimino-N-methyl-acetamide] | 0 |  | 6 | 6 | 0 |  |  |  |  |  |  |  |  | 4 | 40 | 38
